In this assay the test system is Bleomycin-induced pulmonary fibrosis. The assay can be described thus: Bleomycin-induced pulmonary fibrosis in mice. Type of assay: in vivo, mouse. The note with it: 30 mg/kg orally qd, relative to AM1476. The procedure: Pulmonary fibrosis was induced by a single intratracheal instillation of bleomycin (25 μg in 50 μL of 0.9% NaCl).[12] Treatment was initiated at two weeks after the first injection of bleomycin. AM1476 was administered orally at 1, 3, or 10 mg/kg once daily. Solvent (double‐distilled water) was used as a control, and nintedanib at 30 mg/kg orally every day (qd) was included as a comparator. The outcome was analyzed at two and four weeks after the first injection of bleomycin. Mice injected with 0.9% NaCl, the vehicle of bleomycin, served as nonfibrotic controls. Eight mice per group were analyzed.
Skin samples were fixed in 4% formalin for six hours and embedded in paraffin. Five‐micrometer sections were cut and stained with hematoxylin and eosin (H&E). The dermal thickness was quantified on H&E‐stained sections using images captured with a light microscope (Nikon eclipse 80i) at 100‐fold magnification by manually measuring the distance between the epidermal‐dermal junction and the dermal‐subcutaneous fat junction at four sites per mouse.[15], [16] For lung samples, the whole left lung was fixed in 4% formalin for six hours and embedded in paraffin. Five‐micrometer sections were cut and stained with trichrome and sirius red. Histologic readouts were evaluation of the fibrotic area as the percentage of the total lung area in sirius red–stained sections (two sections per mouse) and quantification of pulmonary changes using the Ashcroft score (four sections per mouse).[17], [18]
The amount of collagen protein in skin and lung samples was determined by hydroxyproline assay.[19], [20] After digestion in 6 M HCl for three hours at 120°C, the pH of the samples was adjusted to a pH range of 6–7 with 6 M NaOH. Afterward, 0.06 M chloramine T was added to each sample and incubated for 20 minutes at room temperature. Next, 3.15 M perchloric acid and 20% p‐dimethylaminobenzaldehyde were added, and samples were incubated for an additional 20 minutes at 60°C. The absorbance was determined at 557 nm with a Spectra MAX 190 microplate spectrophotometer. Absolute values were determined using a standard curved generated with type I collagen (Sigma‐Aldrich).

SMILES strings stand for the structures.

For the compound `COC(=O)c1ccc2c(c1)NC(=O)/C2=C(\Nc1ccc(N(C)C(=O)CN2CCN(C)CC2)cc1)c1ccccc1` [nintedanib, reference compound], the “antifibrotic effects across the different readouts” value is listed as “comparable”.

The record behind these values is paper PMC12311259, “Antifibrotic effects of specific targeting of the 5‐hydroxytryptamine 2B receptor (5‐HT2BR) in murine models and ex vivo models of scleroderma skin” (Arthritis & Rheumatology (Hoboken, N.j.), 2025).
